Results published in ChEMBL document CHEMBL1909046, “DrugMatrix in vitro pharmacology data”.

Columns and labels:
Estrogen receptor = target: T1, Estrogen receptor (Homo sapiens, UniProt P03372); conditions: sf9; further: in other assays of this panel Not Active means under 50% inhibition at 10 µM
T1 sequence (P03372 whole entry): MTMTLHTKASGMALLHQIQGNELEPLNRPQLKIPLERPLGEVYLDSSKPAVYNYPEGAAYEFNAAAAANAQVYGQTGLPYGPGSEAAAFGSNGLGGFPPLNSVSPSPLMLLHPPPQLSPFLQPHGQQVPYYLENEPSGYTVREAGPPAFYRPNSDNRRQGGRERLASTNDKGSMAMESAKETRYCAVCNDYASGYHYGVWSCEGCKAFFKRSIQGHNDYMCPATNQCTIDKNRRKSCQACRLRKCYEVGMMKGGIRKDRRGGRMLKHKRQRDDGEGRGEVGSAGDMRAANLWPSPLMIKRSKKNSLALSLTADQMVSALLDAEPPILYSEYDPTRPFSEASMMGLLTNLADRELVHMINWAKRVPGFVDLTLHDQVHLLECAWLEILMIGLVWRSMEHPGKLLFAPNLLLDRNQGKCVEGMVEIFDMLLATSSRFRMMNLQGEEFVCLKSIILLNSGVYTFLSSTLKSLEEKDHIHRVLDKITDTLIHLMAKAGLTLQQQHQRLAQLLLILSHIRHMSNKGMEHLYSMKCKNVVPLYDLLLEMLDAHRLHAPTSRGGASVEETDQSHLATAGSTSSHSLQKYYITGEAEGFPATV

[1] = target: Beta-1 adrenergic receptor (Homo sapiens, UniProt P08588); test: DRUGMATRIX: Adrenergic beta1 radioligand binding (ligand: [125I] Cyanopindolol); assay type: cell membranes, CHO-K1, Membrane; conditions: cho-k1; Not Active = under 50% inhibition at 10 µM
Sequence of Beta-1 adrenergic receptor (P08588 whole entry): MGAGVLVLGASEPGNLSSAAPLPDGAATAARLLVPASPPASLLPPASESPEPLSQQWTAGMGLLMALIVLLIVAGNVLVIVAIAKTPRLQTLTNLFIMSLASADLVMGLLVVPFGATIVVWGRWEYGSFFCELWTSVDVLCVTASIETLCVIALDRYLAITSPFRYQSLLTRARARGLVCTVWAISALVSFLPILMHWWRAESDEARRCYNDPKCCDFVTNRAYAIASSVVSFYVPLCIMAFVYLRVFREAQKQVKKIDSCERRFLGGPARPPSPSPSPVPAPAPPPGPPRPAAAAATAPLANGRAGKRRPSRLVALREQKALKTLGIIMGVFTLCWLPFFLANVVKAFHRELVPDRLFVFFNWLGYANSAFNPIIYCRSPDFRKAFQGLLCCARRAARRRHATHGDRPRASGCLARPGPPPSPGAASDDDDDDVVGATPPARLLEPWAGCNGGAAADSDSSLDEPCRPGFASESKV

[2] = target: Mitogen-activated protein kinase 1 (Homo sapiens, UniProt P28482); test: DRUGMATRIX: Protein Serine/Threonine Kinase, ERK2 enzyme inhibition (substrate: Myelin Basic Protein); design: species or system Escherichia coli; conditions: Not Active = under 50% inhibition at 10 µM
Sequence of Mitogen-activated protein kinase 1 (P28482 whole entry): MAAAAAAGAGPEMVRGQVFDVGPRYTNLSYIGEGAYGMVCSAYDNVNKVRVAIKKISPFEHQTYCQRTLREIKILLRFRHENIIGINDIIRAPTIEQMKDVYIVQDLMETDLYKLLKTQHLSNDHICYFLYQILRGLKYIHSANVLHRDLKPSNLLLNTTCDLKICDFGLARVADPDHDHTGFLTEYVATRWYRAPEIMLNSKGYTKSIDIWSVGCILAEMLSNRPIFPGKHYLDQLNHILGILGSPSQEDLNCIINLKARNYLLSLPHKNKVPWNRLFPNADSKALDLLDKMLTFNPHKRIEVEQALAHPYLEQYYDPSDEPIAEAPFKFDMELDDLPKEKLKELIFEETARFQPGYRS

Androgen receptor = target: T2, Androgen receptor (Rattus norvegicus, UniProt P15207); further: in other assays of this panel Not Active means under 50% inhibition at 10 µM
T2 sequence (P15207 whole entry): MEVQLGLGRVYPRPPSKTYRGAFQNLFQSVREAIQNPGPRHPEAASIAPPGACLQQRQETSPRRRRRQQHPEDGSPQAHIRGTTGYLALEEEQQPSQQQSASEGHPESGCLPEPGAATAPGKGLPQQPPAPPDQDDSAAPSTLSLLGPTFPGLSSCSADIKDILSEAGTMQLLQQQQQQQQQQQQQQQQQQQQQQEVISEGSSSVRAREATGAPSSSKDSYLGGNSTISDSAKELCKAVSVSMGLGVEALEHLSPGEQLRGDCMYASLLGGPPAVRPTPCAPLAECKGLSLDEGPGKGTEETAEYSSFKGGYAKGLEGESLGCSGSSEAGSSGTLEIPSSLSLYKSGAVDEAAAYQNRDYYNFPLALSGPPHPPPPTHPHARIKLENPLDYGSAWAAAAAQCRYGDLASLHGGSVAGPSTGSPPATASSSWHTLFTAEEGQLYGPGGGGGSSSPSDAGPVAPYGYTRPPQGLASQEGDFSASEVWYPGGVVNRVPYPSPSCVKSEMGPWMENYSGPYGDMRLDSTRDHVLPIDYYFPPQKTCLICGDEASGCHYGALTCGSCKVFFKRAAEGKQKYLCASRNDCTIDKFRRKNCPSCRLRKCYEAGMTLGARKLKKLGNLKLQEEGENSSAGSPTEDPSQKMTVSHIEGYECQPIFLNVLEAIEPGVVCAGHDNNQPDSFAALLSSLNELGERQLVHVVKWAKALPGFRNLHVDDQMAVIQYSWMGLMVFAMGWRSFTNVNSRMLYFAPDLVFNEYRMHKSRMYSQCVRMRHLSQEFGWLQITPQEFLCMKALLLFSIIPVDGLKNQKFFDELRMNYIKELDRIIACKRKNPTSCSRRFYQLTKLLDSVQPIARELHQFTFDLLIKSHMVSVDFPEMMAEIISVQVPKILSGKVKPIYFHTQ

[3] = target: T3, 3-hydroxy-3-methylglutaryl-coenzyme A reductase (Homo sapiens, UniProt P04035); design: species or system Escherichia coli;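 further: enzyme inhibition assay of HMG-CoA reductase using radiolabeled [14C]HMG-CoA as substrate; in other assays of this panel Not Active means under 50% inhibition at 10 µM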
T3 sequence (P04035 whole entry): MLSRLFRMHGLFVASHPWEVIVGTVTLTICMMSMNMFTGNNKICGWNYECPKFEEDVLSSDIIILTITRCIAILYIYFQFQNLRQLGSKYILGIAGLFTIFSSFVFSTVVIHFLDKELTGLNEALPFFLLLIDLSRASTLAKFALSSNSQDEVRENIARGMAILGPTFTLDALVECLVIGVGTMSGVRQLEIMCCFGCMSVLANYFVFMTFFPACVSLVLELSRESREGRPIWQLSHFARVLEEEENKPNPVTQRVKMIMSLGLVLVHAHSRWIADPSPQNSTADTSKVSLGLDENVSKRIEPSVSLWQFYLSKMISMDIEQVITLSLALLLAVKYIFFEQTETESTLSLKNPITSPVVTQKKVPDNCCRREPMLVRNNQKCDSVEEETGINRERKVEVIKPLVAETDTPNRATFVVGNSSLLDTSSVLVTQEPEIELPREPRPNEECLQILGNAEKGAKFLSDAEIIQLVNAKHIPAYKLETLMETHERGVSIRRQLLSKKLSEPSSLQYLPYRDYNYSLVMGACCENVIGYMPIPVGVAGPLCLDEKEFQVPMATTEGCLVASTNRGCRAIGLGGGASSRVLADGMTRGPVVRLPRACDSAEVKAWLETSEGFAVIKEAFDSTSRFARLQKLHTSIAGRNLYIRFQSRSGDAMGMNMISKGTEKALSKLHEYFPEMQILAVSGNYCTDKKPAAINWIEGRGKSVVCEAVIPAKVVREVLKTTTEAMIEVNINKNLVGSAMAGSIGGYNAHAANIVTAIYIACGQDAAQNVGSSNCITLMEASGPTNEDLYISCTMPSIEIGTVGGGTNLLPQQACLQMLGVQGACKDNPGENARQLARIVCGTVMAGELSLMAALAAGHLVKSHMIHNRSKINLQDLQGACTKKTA

Measured: IC50

CC(=O)N[C@@H]1[C@H](Oc2c3cc4cc2Oc2ccc(cc2Cl)[C@@H](O[C@@H]2O[C@@H](CO)[C@@H](O)[C@H](O)[C@@H]2NC(C)=O)[C@@H]2NC(=O)[C@H](NC(=O)[C@@H]4NC(=O)[C@H]4NC(=O)[C@@H](Cc5ccc(c(Cl)c5)O3)NC(=O)[C@H](N)c3ccc(O)c(c3)Oc3cc(O)cc4c3)c3ccc(O)c(c3)-c3c(O[C@H]4O[C@H](CO)[C@@H](O)[C@@H](O)[C@@H]4O)cc(O)cc3[C@@H](C(=O)O)NC2=O)O[C@@H](CO)[C@@H](O)[C@@H]1O
Not Active: all assays above

COc1cc2c(c(OC)c1OC)-c1ccc(OC)c(=O)cc1[C@@H](NC(C)=O)CC2 [COLCHICINE]
Not Active: all assays above

CO[C@H]1/C=C/O[C@@]2(C)Oc3c(C)c(O)c4c(c3C2=O)C2=NC3(CCN(CC(C)C)CC3)NC2=C(NC(=O)/C(C)=C\C=C\[C@H](C)[C@H](O)[C@@H](C)[C@@H](O)[C@@H](C)[C@H](OC(C)=O)[C@@H]1C)C4=O [RIFABUTIN]
Not Active: all assays above

COc1cc(NS(=O)(=O)c2ccc(N)cc2)nc(OC)n1 [SULFADIMETHOXINE]
Not Active: all assays above

C[C@@H](N)[C@H]1CC[C@H](C(=O)Nc2ccncc2)CC1 [Y-27632]
Not Active: all assays above
